Assay results as given in ChEMBL document CHEMBL2401737 (J Med Chem, 2013).

Experiments:
[1] = tested on: Human immunodeficiency virus; assay: Antiviral activity against Human immunodeficiency virus harboring integrase Q148K mutant infected in human HeLa cells expressing CD4 after 2 days by beta galactosidase assay relative to wild type HIV; type: functional
[2] = tested on: Human immunodeficiency virus; assay: Antiviral activity against pseudo Human immunodeficiency virus infected in HEK293T cells after 2 days; type: functional, organism-based; conditions: Human immunodeficiency virus 1, HEK-293T, 48 h
[3] = tested on: Human immunodeficiency virus; assay: Antiviral activity against pseudo Human immunodeficiency virus infected in HEK293T cells after 2 days in presence of human serum albumin; type: functional, organism-based; conditions: Human immunodeficiency virus 1, HEK-293T, 48 h
[4] = tested on: Human immunodeficiency virus; assay: Ratio of IC50 for pseudo Human immunodeficiency virus to IC50 for pseudo Human immunodeficiency virus in presence of human serum albumin; type: functional
[5] = Clearance in iv dosed rat; type: ADME, organism-based; conditions: in vivo
[6] = Oral bioavailability in rat; type: ADME, organism-based; conditions: in vivo
[7] = molecular target: Human immunodeficiency virus type 1 integrase (Human immunodeficiency virus 1, UniProt Q7ZJM1); assay: Inhibition of HIV-1 integrase strand transfer activity using [3H]-DNA as substrate preincubated for 60 mins prior to substrate addition measured after 25 to 45 mins
[8] = tested on: Human immunodeficiency virus 1; assay: Antiviral activity against Human immunodeficiency virus 1 3B infected in human MT4 cells after 4 to 5 days by bioluminescence assay in presence of human serum relative to control; type: functional
[9] = tested on: Human immunodeficiency virus 1; assay: Antiviral activity against Human immunodeficiency virus 1 3B infected in human MT4 cells after 4 to 5 days by bioluminescence assay; type: functional, organism-based
[10] = tested on: Human immunodeficiency virus 1; assay: Antiviral activity against Human immunodeficiency virus 1 Ba-L infected human PBMC after 7 days by [methyl-3H]dTTP incorporation assay; type: functional, organism-based; conditions: 168 h

Human immunodeficiency virus type 1 integrase, sequence (Q7ZJM1 whole entry): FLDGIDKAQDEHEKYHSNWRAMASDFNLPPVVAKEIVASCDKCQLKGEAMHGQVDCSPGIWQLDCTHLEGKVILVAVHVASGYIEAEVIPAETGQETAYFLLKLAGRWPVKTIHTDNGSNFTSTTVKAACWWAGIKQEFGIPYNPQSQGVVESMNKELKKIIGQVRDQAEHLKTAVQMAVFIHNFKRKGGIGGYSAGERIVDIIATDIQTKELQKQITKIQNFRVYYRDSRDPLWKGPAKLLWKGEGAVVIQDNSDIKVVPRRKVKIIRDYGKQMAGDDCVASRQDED

Row | SMILES | fold change (FC) [1] | IC50 [2] [nM] | IC50 [3] [nM] | also measured
1 | O=C(NCc1ccc(F)cc1F)c1cn2c(c(O)c1=O)C(=O)N1[C@@H](CC3CCCCC3)CO[C@@H]1C2 | >15 | 330 | 3100 | –
2 | CC(C)[C@@H]1CCN2C(=O)c3c(O)c(=O)c(C(=O)NCc4ccc(F)cc4F)cn3C[C@@H]2O1 | 8.1 | 2 | 20 | –
3 | C[C@H]1CCN2C(=O)c3c(O)c(=O)c(C(=O)NCc4ccc(F)cc4F)cn3C[C@H]2O1 | 2.8 | 0.5 | 1.5 | –
4 | CCCC[C@H]1CO[C@@H]2Cn3cc(C(=O)NCc4ccc(F)cc4F)c(=O)c(O)c3C(=O)N12 | >57 | 87 | 1800 | –
5 | CC[C@H](C)[C@H]1CO[C@@H]2Cn3cc(C(=O)NCc4ccc(F)cc4F)c(=O)c(O)c3C(=O)N12 | 200 | 20 | 200 | –
6 | C[C@@H]1CO[C@H]2Cn3cc(C(=O)NCc4ccc(F)cc4F)c(=O)c(O)c3C(=O)N12 | 35 | 5.4 | 39 | Ratio IC50 [4]: >7
7 | O=C(NCc1ccc(F)cc1F)c1cn2c(c(O)c1=O)C(=O)N1[C@@H](c3ccccc3)CO[C@@H]1C2 | 44 | 72 | 620 | –
8 | COC[C@@H]1CCN2C(=O)c3c(O)c(=O)c(C(=O)NCc4ccc(F)cc4F)cn3C[C@@H]2O1 | 5 | 1.4 | 2.3 | Ratio IC50 [4]: 2
9 | Cc1nnc(C(=O)NC(C)(C)c2nc(C(=O)NCc3ccc(F)cc3)c([O-])c(=O)n2C)o1.[K+] [RALTEGRAVIR POTASSIUM] | 79 | 2 | 7.1 | Ratio IC50 [4]: 77
10 | C[C@H]1CO[C@@H]2Cn3cc(C(=O)NCc4ccc(F)cc4F)c(=O)c(O)c3C(=O)N2C1 | 5.7 | 0.5 | 5.2 | –
11 | O=C(NCc1ccc(F)cc1F)c1cn2c(c(O)c1=O)C(=O)N1[C@@H](Cc3c[nH]c4ccccc34)CO[C@@H]1C2 | 22 | 1.6 | 71 | –
12 | CC[C@H]1CCN2C(=O)c3c(O)c(=O)c(C(=O)NCc4ccc(F)cc4F)cn3C[C@H]2O1 | 2.2 | 0.5 | 3.1 | –
13 | O=C(NCc1ccc(F)cc1F)c1cn2c(c(O)c1=O)C(=O)N1[C@@H](CO)CO[C@@H]1C2 | 12 | 10 | 37 | –
14 | CC(C)[C@@H]1CO[C@H]2Cn3cc(C(=O)NCc4ccc(F)cc4F)c(=O)c(O)c3C(=O)N21 | 73 | 4 | 16 | –
15 | C[C@@H]1CCN2C(=O)c3c(O)c(=O)c(C(=O)NCc4ccc(F)cc4F)cn3C[C@@H]2O1 | 2.1 | 0.9 | 7 | –
16 | O=C(NCc1ccc(F)cc1F)c1cn2c(c(O)c1=O)C(=O)N1[C@@H](Cc3ccccc3)CO[C@@H]1C2 | 13 | 13 | 380 | –
17 | C[C@H]1CCO[C@@H]2Cn3cc(C(=O)NCc4ccc(F)cc4F)c(=O)c(O)c3C(=O)N12 | 2.2 | 0.5 | 4 | –
18 | O=C(NCc1ccc(F)cc1)c1cn2c(c(O)c1=O)C(=O)N1CCCOC1C2 (racemic) | 2.8 | 1.9 | 20 | clearance [5]: 0.1 mL/min/kg; bioavailability [6]: 51%
19 | CC[C@H]1CO[C@@H]2Cn3cc(C(=O)NCc4ccc(F)cc4F)c(=O)c(O)c3C(=O)N12 | – | 0.9 | 63 | –
20 | C[C@@H]1CO[C@H]2Cn3cc(C(=O)NCc4ccc(F)cc4)c(=O)c(O)c3C(=O)N2C1 | 36 | 0.8 | 210 | –
21 | CC1(C)CO[C@@H]2Cn3cc(C(=O)NCc4ccc(F)cc4)c(=O)c(O)c3C(=O)N2C1 | 8.1 | 2 | 7.9 | –

Row | SMILES | fold change (FC) [1] | IC50 [2] [nM] | IC50 [3] [nM] | also measured
22 | O=C(NCc1ccc(F)cc1F)c1cn2c(c(O)c1=O)C(=O)N1CC[C@@H](c3ccccc3)O[C@H]1C2 | 8.5 | 5.6 | 50 | –
23 | O=C(NCc1ccc(F)cc1F)c1cn2c(c(O)c1=O)C(=O)N1[C@@H](Cc3ccc(O)cc3)CO[C@@H]1C2 | 1.6 | 2.1 | 22 | –
24 | COC[C@H]1CCN2C(=O)c3c(O)c(=O)c(C(=O)NCc4ccc(F)cc4F)cn3C[C@H]2O1 | 3.5 | 0.4 | 0.9 | Ratio IC50 [4]: 2
25 | CC(C)C[C@@H]1CO[C@H]2Cn3cc(C(=O)NCc4ccc(F)cc4F)c(=O)c(O)c3C(=O)N12 | 51 | 3.2 | 16 | –
26 | CS(=O)(=O)CC[C@H]1CO[C@@H]2Cn3cc(C(=O)NCc4ccc(F)cc4F)c(=O)c(O)c3C(=O)N12 | >10 | 430 | 370 | –
27 | CC1(C)CO[C@H]2Cn3cc(C(=O)NCc4ccc(F)cc4)c(=O)c(O)c3C(=O)N2C1 | 3.6 | 1.1 | 440 | –
28 | CC[C@@H]1CO[C@H]2Cn3cc(C(=O)NCc4ccc(F)cc4F)c(=O)c(O)c3C(=O)N12 | 63 | 8.5 | 35 | –
29 | C[C@@H]1CCN2C(=O)c3c(O)c(=O)c(C(=O)NCc4ccc(F)cc4)cn3C[C@@H]2O1 | – | 2.1 | 25 | IC50 [7]: 5 nM; Ratio IC50 [4]: 12
30 | CC[C@@H]1CCN2C(=O)c3c(O)c(=O)c(C(=O)NCc4ccc(F)cc4F)cn3C[C@@H]2O1 | 4.6 | 0.7 | 9.4 | –
31 | CSCC[C@H]1CO[C@@H]2Cn3cc(C(=O)NCc4ccc(F)cc4F)c(=O)c(O)c3C(=O)N12 | – | 3.1 | 18 | –
32 | O=C(NCc1ccc(F)cc1)c1cn2c(c(O)c1=O)C(=O)N1CCCO[C@@H]1C2 | 11 | 2.2 | 9.4 | clearance [5]: 0.17 mL/min/kg; bioavailability [6]: 52%
33 | CC(C)[C@H]1CCN2C(=O)c3c(O)c(=O)c(C(=O)NCc4ccc(F)cc4F)cn3C[C@H]2O1 | 1.9 | 0.7 | 4.1 | –
34 | O=C(NCc1ccc(F)cc1F)c1cn2c(c(O)c1=O)C(=O)N1[C@H](Cc3ccccc3)CO[C@H]1C2 | 19 | 0.6 | 4.5 | Ratio IC50 [4]: >7
35 | C[C@H]1CCN2C(=O)c3c(O)c(=O)c(C(=O)NCc4ccc(F)cc4)cn3C[C@H]2O1 | – | 1.3 | 3.3 | –
36 | C[C@H]1CO[C@@H]2Cn3cc(C(=O)NCc4ccc(F)cc4)c(=O)c(O)c3C(=O)N2C1 | 9.9 | 0.7 | 5.6 | –
37 | CC(C)(C)[C@H]1CO[C@@H]2Cn3cc(C(=O)NCc4ccc(F)cc4)c(=O)c(O)c3C(=O)N21 | 74 | 4 | 35 | –
38 | C[C@H]1CO[C@@H]2Cn3cc(C(=O)NCc4ccc(F)cc4)c(=O)c(O)c3C(=O)N12 | 13 | 2.1 | 50 | –
39 | CC(C)[C@H]1CO[C@@H]2Cn3cc(C(=O)NCc4ccc(F)cc4F)c(=O)c(O)c3C(=O)N12 | 100 | 4.8 | 300 | –
40 | C[C@@H]1CCO[C@H]2Cn3cc(C(=O)NCc4ccc(F)cc4F)c(=O)c(O)c3C(=O)N12 [DOLUTEGRAVIR] | 0.4 | 1.7 | 22 | fold change (FC) [8]: 75; IC50 [9]: 2 nM; IC50 [10]: 0.5 nM; IC90 [3]: 0.0374 µg/mL
41 | CC(C)(C)[C@H]1CO[C@@H]2Cn3cc(C(=O)NCc4ccc(F)cc4F)c(=O)c(O)c3C(=O)N21 | 130 | 20 | 130 | –
42 | O=C(NCc1ccc(F)cc1)c1cn2c(c(O)c1=O)C(=O)N1CCCO[C@H]1C2 | 2.4 | 1.9 | 81 | Ratio IC50 [4]: 43; clearance [5]: 0.1 mL/min/kg; bioavailability [6]: 79%
